In this assay the target is T1, PD-1-Ig binding to PD-L1-TVMV-His (PD-L1-His) (Homo sapiens, UniProt Q9NZQ7).
T1 construct: hPDL1(19-239)-TVMV-His; made in house; host or cells: HEK293T cells
In words: PD-1/PD-L1 Homogenous Time-Resolved Fluorescence (HTRF) binding assay. As to conditions: PD-1-Ig (20 nM) / PD-L1-His (10 nM). From the text: The ability of the macrocyclic peptides of the present disclosure to bind to PD-L1 was investigated using a PD-1/PD-L1 Homogenous Time-Resolved Fluorescence (HTRF) binding assay.
Homogenous Time-Resolved Fluorescence (HTRF) Assays of Binding of Soluble PD-1 to Soluble PD-L1. Soluble PD-1 and soluble PD-L1 refers to proteins with carboxyl-end truncations that remove the transmembrane-spanning regions and are fused to heterologous sequences, specifically the Fc portion of the human immunoglobuling G sequence (Ig) or the hexahistidine epitope tag (His). All binding studies were performed in an HTRF assay buffer consisting of dPBS supplemented with 0.1% (w/v) bovine serum albumin and 0.05% (v/v) Tween-20. For the PD-1-Ig/PD-L1-His binding assay, inhibitors were pre-incubated with PD-L1-His (10 nM final) for 15 m in 4 μl of assay buffer, followed by addition of PD-1-Ig (20 nM final) in 1 μl of assay buffer and further incubation for 15 m. PD-L1 fusion proteins from either human, cynomologous macaques, mouse, or other species were used. HTRF detection was achieved using europium crypate-labeled anti-Ig monoclonal antibody (1 nM final) and allophycocyanin (APC) labeled anti-His monoclonal antibody (20 nM final). Antibodies were diluted in HTRF detection buffer and 5 μl was dispensed on top of binding reaction. […] Additional binding assays were established between PD-1-Ig/PD-L2-His (20 and 5 nM, respectively), CD80-His/PD-L1-Ig (100 and 10 nM, respectively) and CD80-His/CTLA4-Ig (10 and 5 nM, respectively).
Recombinant Proteins. […] Human PD-L2-His (Sino Biologicals), CD80-His (Sino Biologicals), CTLA4-Ig (RnD Systems) were all obtained through commercial sources.
A general note: TR-FRET usually uses a lanthanide donor and a delayed reading to cut background.

T1 sequence (Q9NZQ7 with tags, fused parts or gaps): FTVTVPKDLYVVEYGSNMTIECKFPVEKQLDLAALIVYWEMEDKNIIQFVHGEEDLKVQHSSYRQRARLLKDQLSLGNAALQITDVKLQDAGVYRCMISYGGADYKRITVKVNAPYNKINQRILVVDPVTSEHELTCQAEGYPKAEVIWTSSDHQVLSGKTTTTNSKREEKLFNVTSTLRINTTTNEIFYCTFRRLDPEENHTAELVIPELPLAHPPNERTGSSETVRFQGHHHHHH

Regarding `CCCC[C@H]1C(=O)N(C)[C@@H](CCCC)C(=O)N[C@@H](CC(C)C)C(=O)N[C@H](C(=O)NCC(N)=O)CNCC(=O)N[C@@H](Cc2ccc(O)cc2)C(=O)N(C)[C@@H](C)C(=O)N[C@@H](CC(=O)O)C(=O)N2CCC[C@H]2C(=O)N[C@@H](CCC(N)=O)C(=O)N[C@@H](CC(=O)O)C(=O)N2C[C@H](O)C[C@H]2C(=O)N[C@@H](Cc2c[nH]c3ccccc23)C(=O)N[C@@H](CC(N)=O)C(=O)N[C@@H](Cc2cn(CC(=O)O)c3ccccc23)C(=O)N1C` [Example 9013], for the setting “range classes”, the IC50 (commonly the point on the concentration scale where inhibition reaches its midpoint) was in the range of 10 to 99 nM.

As to `CCCC[C@H]1C(=O)N(C)[C@@H](CCCC)C(=O)N[C@@H](CC(C)C)C(=O)N[C@H](C(N)=O)CNCC(=O)N[C@@H](Cc2ccc(O)cc2)C(=O)N2CCCC[C@H]2C(=O)N[C@@H](CC(=O)O)C(=O)N2CCC[C@H]2C(=O)N[C@@H](CCC(N)=O)C(=O)N[C@@H](CCC(=O)O)C(=O)N2C[C@H](O)C[C@H]2C(=O)N[C@@H](Cc2c[nH]c3ccccc23)C(=O)N[C@@H](CC(N)=O)C(=O)N[C@@H](Cc2cn(CC(=O)O)c3ccccc23)C(=O)N1C` [Example 9014], the half-inhibitory concentration (IC50) (range classes) fell in the range of 1 to 9.9 nM. The compound `CCCC[C@H]1C(=O)N(C)[C@@H](CCCC)C(=O)N[C@@H](CC(C)C)C(=O)N[C@H](C(=O)NCC(N)=O)CNCC(=O)N[C@@H](Cc2ccc(F)cc2)C(=O)N(C)[C@@H](C)C(=O)N[C@@H](CC(=O)O)C(=O)N2CCC[C@H]2C(=O)N[C@@H](CCC(N)=O)C(=O)N[C@@H](CC(=O)O)C(=O)N2C[C@H](O)C[C@H]2C(=O)N[C@@H](Cc2c[nH]c3ccccc23)C(=O)N[C@@H](CC(N)=O)C(=O)N[C@@H](Cc2cn(CC(=O)O)c3ccccc23)C(=O)N1C` [Example 9015] had an IC50 (numeric values) of 15 nM.

Turning to `CCCC[C@H]1C(=O)N(C)[C@@H](CCCC)C(=O)N[C@@H](CC(C)C)C(=O)N[C@H](C(=O)NCC(N)=O)CNCC(=O)N[C@@H](Cc2ccc(F)cc2)C(=O)N(C)[C@@H](C)C(=O)N[C@@H](CC(=O)O)C(=O)N2CCC[C@H]2C(=O)N[C@@H](CCC(N)=O)C(=O)N[C@@H](CCC(=O)O)C(=O)N2C[C@H](O)C[C@H]2C(=O)N[C@@H](Cc2c[nH]c3ccccc23)C(=O)N[C@@H](CC(N)=O)C(=O)N[C@@H](Cc2cn(CC(=O)O)c3ccccc23)C(=O)N1C` [Example 9016], where the note is “range classes”, the IC50 lay within 1 to 9.9 nM. Still for that read-out and setting: the same measure for `CCCC[C@H]1C(=O)N(C)[C@@H](CCCC)C(=O)N[C@@H](CC(C)C)C(=O)N[C@H](C(=O)NCC(N)=O)CNCC(=O)N[C@@H](Cc2ccc(F)cc2)C(=O)N(C)[C@@H](C)C(=O)N[C@@H](CC(=O)O)C(=O)N2CCC[C@H]2C(=O)N[C@@H](CCC(N)=O)C(=O)N[C@@H](CCC(N)=O)C(=O)N2C[C@H](O)C[C@H]2C(=O)N[C@@H](Cc2c[nH]c3ccccc23)C(=O)N[C@@H](CC(N)=O)C(=O)N[C@@H](Cc2cn(CC(=O)O)c3ccccc23)C(=O)N1C` [Example 9017]: 10 to 99 nM. Compound `CCCC[C@H]1C(=O)N(C)[C@@H](CCCC)C(=O)N[C@@H](CCC(=O)O)C(=O)N[C@H](C(=O)NCC(N)=O)CNCC(=O)N[C@@H](Cc2ccc(O)cc2)C(=O)N(C)[C@@H](C)C(=O)N[C@@H](CC(N)=O)C(=O)N2CCC[C@H]2C(=O)N[C@@H](CCC(N)=O)C(=O)N[C@@H](CC(C)C)C(=O)N2C[C@H](O)C[C@H]2C(=O)N[C@@H](Cc2c[nH]c3ccccc23)C(=O)N[C@@H](CC(N)=O)C(=O)N[C@@H](Cc2cn(CC(=O)O)c3ccccc23)C(=O)N1C` [Example 9018] returned an IC50 (range classes) of 1 to 9.9 nM.

`CCCC[C@H]1C(=O)N(C)[C@@H](CCCC)C(=O)N[C@@H](CCC(=O)O)C(=O)N[C@H](C(=O)NCC(N)=O)CNCC(=O)N[C@@H](Cc2ccc(O)cc2)C(=O)N(C)[C@@H](C)C(=O)N[C@@H](CC(N)=O)C(=O)N2CCC[C@H]2C(=O)N[C@@H](CCC(N)=O)C(=O)N[C@@H](CC(=O)O)C(=O)N2C[C@H](O)C[C@H]2C(=O)N[C@@H](Cc2c[nH]c3ccccc23)C(=O)N[C@@H](CC(N)=O)C(=O)N[C@@H](Cc2cn(CC(=O)O)c3ccccc23)C(=O)N1C` [Example 9019] yielded an IC50 (range classes) of 1 to 9.9 nM. For the setting “range classes”, `CCCC[C@H]1C(=O)N(C)[C@@H](CCCC)C(=O)N[C@@H](CCC(=O)O)C(=O)N[C@H](C(=O)NCC(N)=O)CNCC(=O)N[C@@H](Cc2ccc(O)cc2)C(=O)N(C)[C@@H](C)C(=O)N[C@@H](CC(N)=O)C(=O)N2CCC[C@H]2C(=O)N[C@@H](CCC(N)=O)C(=O)N[C@@H](CCC(=O)O)C(=O)N2C[C@H](O)C[C@H]2C(=O)N[C@@H](Cc2c[nH]c3ccccc23)C(=O)N[C@@H](CC(N)=O)C(=O)N[C@@H](Cc2cn(CC(=O)O)c3ccccc23)C(=O)N1C` [Example 9020] displayed an IC50 of 10 to 99 nM. The compound `CCCC[C@H]1C(=O)N(C)[C@@H](CCCC)C(=O)N[C@@H](CCC(=O)O)C(=O)N[C@H](C(=O)NCC(N)=O)CNCC(=O)N[C@@H](Cc2ccc(O)cc2)C(=O)N(C)[C@@H](C)C(=O)N[C@@H](CC(N)=O)C(=O)N2CCC[C@H]2C(=O)N[C@@H](CCC(N)=O)C(=O)N[C@@H](CCC(N)=O)C(=O)N2C[C@H](O)C[C@H]2C(=O)N[C@@H](Cc2c[nH]c3ccccc23)C(=O)N[C@@H](CC(N)=O)C(=O)N[C@@H](Cc2cn(CC(=O)O)c3ccccc23)C(=O)N1C` [Example 9021] had an IC50 (range classes) of 10 to 99 nM. Take `CCCC[C@H]1C(=O)N(C)[C@@H](CCCC)C(=O)N[C@@H](CCC(=O)O)C(=O)N[C@H](C(=O)NCC(N)=O)CNCC(=O)N[C@@H](Cc2ccc(F)cc2)C(=O)N(C)[C@@H](C)C(=O)N[C@@H](CC(N)=O)C(=O)N2CCC[C@H]2C(=O)N[C@@H](CCC(N)=O)C(=O)N[C@@H](CC(C)C)C(=O)N2C[C@H](O)C[C@H]2C(=O)N[C@@H](Cc2c[nH]c3ccccc23)C(=O)N[C@@H](CC(N)=O)C(=O)N[C@@H](Cc2cn(CC(=O)O)c3ccccc23)C(=O)N1C` [Example 9022]: the IC50 (range classes) was 10 to 99 nM. Under “range classes”, `CCCC[C@H]1C(=O)N(C)[C@@H](CCCC)C(=O)N[C@@H](CCC(=O)O)C(=O)N[C@H](C(=O)NCC(N)=O)CNCC(=O)N[C@@H](Cc2ccc(F)cc2)C(=O)N(C)[C@@H](C)C(=O)N[C@@H](CC(N)=O)C(=O)N2CCC[C@H]2C(=O)N[C@@H](CCC(N)=O)C(=O)N[C@@H](CC(=O)O)C(=O)N2C[C@H](O)C[C@H]2C(=O)N[C@@H](Cc2c[nH]c3ccccc23)C(=O)N[C@@H](CC(N)=O)C(=O)N[C@@H](Cc2cn(CC(=O)O)c3ccccc23)C(=O)N1C` [Example 9023] showed an IC50 of 10 to 99 nM. For `CCCC[C@H]1C(=O)N(C)[C@@H](CCCC)C(=O)N[C@@H](CCC(=O)O)C(=O)N[C@H](C(=O)NCC(N)=O)CNCC(=O)N[C@@H](Cc2ccc(F)cc2)C(=O)N(C)[C@@H](C)C(=O)N[C@@H](CC(N)=O)C(=O)N2CCC[C@H]2C(=O)N[C@@H](CCC(N)=O)C(=O)N[C@@H](CCC(=O)O)C(=O)N2C[C@H](O)C[C@H]2C(=O)N[C@@H](Cc2c[nH]c3ccccc23)C(=O)N[C@@H](CC(N)=O)C(=O)N[C@@H](Cc2cn(CC(=O)O)c3ccccc23)C(=O)N1C` [Example 9024], the IC50 (range classes) was 10 to 99 nM. In turn, `CCCC[C@H]1C(=O)N(C)[C@@H](CCCC)C(=O)N[C@@H](CCC(=O)O)C(=O)N[C@H](C(=O)NCC(N)=O)CNCC(=O)N[C@@H](Cc2ccc(F)cc2)C(=O)N(C)[C@@H](C)C(=O)N[C@@H](CC(N)=O)C(=O)N2CCC[C@H]2C(=O)N[C@@H](CCC(N)=O)C(=O)N[C@@H](CCC(N)=O)C(=O)N2C[C@H](O)C[C@H]2C(=O)N[C@@H](Cc2c[nH]c3ccccc23)C(=O)N[C@@H](CC(N)=O)C(=O)N[C@@H](Cc2cn(CC(=O)O)c3ccccc23)C(=O)N1C` [Example 9025] displayed an IC50 (numeric values) of 16 nM.
